Laboratory results: the NIST ThermoML archive (doi:10.1021/je700096m)

Assay: xn = mol fraction of the nth substance listed
Conditions: 298.15 K, Liquid

CCCCCl [1-chlorobutane] + CC(=O)N(C)C
mass density [kg/m3]
Conditions	x2 = 0.0967	x2 = 0.2105	x2 = 0.2984	x2 = 0.4019	x2 = 0.499	x2 = 0.5947	x2 = 0.6992	x2 = 0.7997	x2 = 0.9015
100 kPa	885.6	891.8	896.7	902.5	908.1	913.3	919.2	924.7	930.4
2000 kPa	887.5	893.6	898.4	904.1	909.6	914.8	920.6	925.9	931.6
4000 kPa	889.5	895.5	900.1	905.8	911.2	916.2	922.1	927.3	932.9
6000 kPa	891.4	897.2	901.9	907.45	912.7	917.8	923.4	928.7	934.1
8000 kPa	893.3	899.1	903.6	909	914.2	919.2	924.8	930	935.5
10000 kPa	895.3	900.9	905.3	910.9	915.8	920.7	926.2	931.3	936.7
11900 kPa	–	–	–	912.3	–	–	–	–	–
12000 kPa	897.1	902.6	907	–	917.3	922.1	927.6	932.6	937.9
13900 kPa	–	–	–	913.9	–	–	–	–	–
14000 kPa	898.9	904.4	908.6	–	918.8	923.5	929	933.8	939
15900 kPa	–	–	–	–	–	–	–	935.1	–
16000 kPa	900.6	906.1	910.2	915.4	920.2	924.8	930.3	–	940.3
17900 kPa	902.3	907.6	–	–	–	–	–	936.2	–
18000 kPa	–	–	911.7	916.9	921.6	926.2	931.5	–	941.5
20000 kPa	904.2	909.3	–	–	–	–	932.9	937.7	942.6
20100 kPa	–	–	913.5	918.5	923.1	927.6	–	–	–

CCCCCl [1-chlorobutane] + CN(C)C=O
mass density [kg/m3]
Conditions	x2 = 0.0998	x2 = 0.1981	x2 = 0.2988	x2 = 0.4019	x2 = 0.501	x2 = 0.6087	x2 = 0.7008	x2 = 0.8163	x2 = 0.9007
100 kPa	885.5	890.7	896.3	902.3	908.6	915.5	921.8	930.2	936.6
2000 kPa	887.4	892.5	898	903.9	910.1	917	923.1	931.5	937.8
4000 kPa	889.3	894.4	899.8	905.7	911.7	918.5	924.6	932.8	939.1
6000 kPa	891.2	896.3	901.6	907.3	913.3	920	926	934.2	940.3
7900 kPa	–	–	–	–	–	–	927.5	–	–
8000 kPa	893.1	898.1	903.3	908.9	914.9	921.5	–	935.4	941.5
10000 kPa	895.1	900	905.1	910.7	916.6	923	928.8	936.8	942.9
11900 kPa	–	–	–	–	918	–	–	–	–
12000 kPa	896.9	901.6	906.8	912.2	–	924.4	930.3	938.1	944.1
14000 kPa	898.6	903.4	908.4	913.8	919.5	925.9	931.7	939.3	945.3
16000 kPa	900.4	905.1	910.1	915.3	921	927.21	933	940.6	946.4
18000 kPa	902.1	906.8	911.7	916.7	922.4	–	934.3	941.8	947.5
18100 kPa	–	–	–	–	–	928.6	–	–	–
20000 kPa	903.8	908.7	913.1	918.3	924	930.2	935.6	943.3	949.1

CCCCCCCl [1-chlorohexane] + CC(=O)N(C)C
mass density [kg/m3]
Conditions	x2 = 0.0952	x2 = 0.2003	x2 = 0.3011	x2 = 0.4036	x2 = 0.503	x2 = 0.6051	x2 = 0.6992	x2 = 0.8013	x2 = 0.8996
100 kPa	877.1	881.6	886.4	891.9	897.5	903.8	910.4	918.4	926.8
2000 kPa	878.7	883.2	888	893.41	899	905.2	911.7	919.7	928.1
4000 kPa	880.4	884.8	889.5	895	900.4	906.7	913.1	921	929.3
6000 kPa	882	886.4	891.2	896.5	901.9	908.1	914.5	922.3	930.5
8000 kPa	883.6	888	892.7	898	903.4	909.5	915.9	923.6	931.7
10000 kPa	885.3	889.6	894.3	899.6	904.9	910.9	917.3	925	933.1
11900 kPa	–	–	–	–	–	–	918.6	–	–
12000 kPa	886.8	891.2	895.8	901	906.3	912.3	–	926.3	934.3
14000 kPa	888.4	892.78	897.2	902.4	907.6	913.6	919.9	927.5	935.5
16000 kPa	889.9	894.1	898.7	903.8	909	914.9	921.2	928.7	936.6
18000 kPa	891.3	895.6	900.1	905.2	910.3	916.2	922.6	929.9	937.7
20000 kPa	892.9	897.2	901.8	–	911.8	917.7	924	931.3	–
20100 kPa	–	–	–	906.8	–	–	–	–	939

CCCCCCCl [1-chlorohexane] + CN(C)C=O
mass density [kg/m3]
Conditions	x2 = 0.097	x2 = 0.2019	x2 = 0.2707	x2 = 0.4007	x2 = 0.5017	x2 = 0.6155	x2 = 0.6988	x2 = 0.7993	x2 = 0.9018
100 kPa	876.9	881.2	884.4	891.3	897.4	905.4	912.7	921.8	932.6
2000 kPa	878.5	882.8	885.9	892.8	898.8	906.9	914	923.1	933.8
4000 kPa	880.2	884.4	887.5	894.3	900.3	908.4	915.5	924.4	935.1
6000 kPa	881.8	886	889.1	895.8	901.8	909.8	916.8	925.7	936.4
8000 kPa	883.4	887.6	890.7	897.3	903.3	911.2	918.2	927	937.6
10000 kPa	885.1	889.3	892.3	898.8	904.8	912.7	919.6	928.4	938.9
11900 kPa	–	–	–	–	–	914	–	–	–
12000 kPa	886.7	890.8	893.8	900	906.3	–	920.9	929.7	940.1
13900 kPa	–	–	–	–	–	–	–	930.9	–
14000 kPa	888.2	892.3	895.2	901.8	907.6	915.4	922.3	–	941.3
16000 kPa	889.7	893.8	896.7	903.2	909.1	916.8	923	932.1	942.5
17900 kPa	–	–	–	–	–	–	–	933.3	–
18000 kPa	891.2	895.3	898.1	904.6	910.4	918.1	924.9	–	943.6
20000 kPa	892.8	896.6	899.6	906	911.8	919.5	926.2	934.6	944.9
